Converted amounts (≈) assume the structure as drawn. Read-outs that look alike come from different tables or passages of the source. Square brackets hold non-standard residues; d marks the D form. Peptide text beside a SMILES is read from it. Bip = N[C@@H](Cc1ccc(-c2ccccc2)cc1)C(=O)O; aThr = C[C@H](O)[C@H](N)C(=O)O; NMeM = CN[C@@H](CCSC)C(=O)O; NMeA = CN[C@@H](C)C(=O)O; Orn = NCCC[C@H](N)C(=O)O; Dap = NC[C@H](N)C(=O)O
Tests used:
S. aureus USA300 = test: MIC assay, S. aureus USA300; format: cell-based, Staphylococcus aureus; details: Table 7
Description: (§1) Bacterial growth conditions. LB or Mueller Hinton II cation-adjusted broth (MHB II, BBL 212322) was prepared according to manufacturer's instructions and supplemented with arabinose at 0.02% for overnight growth or at indicated concentrations in the description of the figures. Bacterial cultures were grown at 37° C. When appropriate, media was supplemented with kanamycin (50 μg/mL), carbenicillin (50 μg/mL), chloramphenicol (12.5 or 25 μg/mL), hygromycin (200 μg/mL), and/or gentamicin (10 μg/mL).
(§2) Peptide sensitivity and MIC assays. Lyophilized peptides (Smartox Biotechnology, CPC Scientific. ABclonal) were solubilized to 10 mM in Tris buffer, pH 8, prior to making a 2-fold dilution series in MHBII cation adjusted broth with highest final assay concentration of 400-800 μM. Bacteria were grown to log phase and added to final OD600˜0.001. The final EDTA concentration was 0.5 mM for E. coli strains and 0.125 mM for USA300. The final volume of 10 μL/well in a 384 well black, clear bottom plate (Corning) was spun <1 min at <250×g and then incubated at 37° C. After 4 h, an equal volume (10 μL) of BacTiter-Glo™ (Promega) was added to each well and luminescence was read after 5 min on an EnVision plate reader (PerkinElmer). To measure the minimal inhibitory concentrations (MICs), bacteria from fresh overnight plates or log phase cultures were diluted with or without EDTA and peptides as described above to final OD600˜0.0002. Plates were incubated at 37° C. for 20 h before measuring OD600 with an EnVision plate reader.

P. aeruginosa = format: cell-based, Pseudomonas aeruginosa; details: Table 8
Outline: (§3)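 Peptides were serially diluted 2-fold in cation-adjusted Mueller Hinton II broth (top final 400-800 μM) with log-phase or overnight-plate bacteria at final OD600 ~0.0002. EDTA was added at 0.5 mM final for E. coli and 0.125 mM for USA300. MIC was read as OD600 after 20 h at 37° C.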

E. coli BW25113 = format: cell-based, Escherichia coli
Outline: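 For MIC, bacteria (final OD600 ~0.0002) were incubated with 2-fold peptide dilutions (top 400–800 μM) in cation-adjusted MHB II with or without EDTA, 20 h at 37 °C, read by OD600. EDTA was 0.5 mM for E. coli and 0.125 mM for USA300. The growth-inhibition assay used log-phase cells at OD600 ~0.001, 4 h at 37 °C, BacTiter-Glo luminescence.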

E. coli ΔwaaD MCR-1 = test: MIC assay, E. coli ΔwaaD MCR-1; format: cell-based, Escherichia coli; details: Table 7
Description: as §1, §2

K. pneumoniae = format: cell-based, Klebsiella pneumoniae; details: Table 8
Outline: as §3

E. coli ΔwaaD + vect. = test: MIC assay, E. coli ΔwaaD + vect.; format: cell-based, Escherichia coli; details: Table 7
Description: as §1, §2

A. baumannii = format: cell-based, Acinetobacter baumannii; details: Table 8
Outline: as §3

E. coli imp4213 = test: MIC assay, E. coli imp4213; format: cell-based, Escherichia coli; details: Table 7
Description: as §1, §2

E. coli ΔwaaD = test: MIC assay, E. coli ΔwaaD; format: cell-based, Escherichia coli; details: Table 7; + EDTA
Description: as §1, §2

Row | Compound | MIC S. aureus USA300 (S. aureus USA300) | MIC R. aeruginosa (P. aeruginosa) | MIC E. coli BW25113 (E. coli BW25113; Table 8) | MIC E coli ΔwaaD − MCR1 (E. coli ΔwaaD MCR-1) | MIC K. pneumoniae (K. pneumoniae) | MIC E. coli ΔwaaD + vect. (E. coli ΔwaaD + vect.) | MIC A. baumannii (A. baumannii) | MIC E. coli imp4213 (E. coli imp4213) | MIC E. coli BW25113 (E. coli BW25113; Table 7, no EDTA) | MIC E coli BW25113 + EDTA (E. coli BW25113; Table 7) | MIC E. coli ΔwaaD + EDTA (E. coli ΔwaaD)
1 | CSCC[C@H](NC(=O)[C@@H]1CCCN1C(=O)[C@H](Cc1ccc(O)cc1)NC(C)=O)C(=O)N[C@H](C(=O)N[C@@H](C)C(=O)N[C@@H](CCCN)C(=O)N[C@@H](CCCNC(=N)N)C(=O)N[C@@H](Cc1ccccc1)C(=O)N[C@@H](CC(C)C)C(=O)N[C@@H](CCC(=O)O)C(=O)N[C@@H](CCCCN)C(=O)N[C@@H](Cc1c[nH]c2ccccc12)C(=O)NCC(=O)N[C@@H](CC(C)C)C(=O)N[C@@H](CC(C)C)C(=O)N[C@@H](CCCNC(=N)N)C(N)=O)[C@@H](C)O [compound 53] (Ac-YPMTA[Orn]RFLEKWGLLR-NH2) | >400 µM | 400 µM (≈ 815 µg/mL) | 400 µM (≈ 815 µg/mL) | 400 µM (≈ 815 µg/mL) | 800 µM (≈ 1630 µg/mL) | 100 µM | 400 µM (≈ 815 µg/mL) | – | – | – | –
2 | Ac-YPMTARRFLAKWGLLR-NH2 [compound 57] | >400 µM | 200 µM | 200 µM | 100/700 | 400 µM | 100 µM | 100 µM | 12.5 µM | – | – | –
3 | Ac-YPMNARRFLEKWGLLR-NH2 [compound 50] | >400 µM | 800 µM | 400 µM | 800/400 | 800 µM | 200 µM | 400 µM | 25 µM | – | – | –
4 | Ac-YPMTARRYLEKWGLLR-NH2 [compound 56] | >400 µM | 800 µM | – | 800 µM | 800 µM | 400 µM | 400 µM | 25 µM | >400 µM | – | –
5 | Ac-YPMSARRFLEKWGLLR-NH2 [compound 49] | >400 µM | 400 µM | 400 µM | 400 µM | 800 µM | 100 µM | 200 µM | 25 µM | – | – | –
6 | CSCC[C@H](NC(=O)[C@@H]1CCCN1C(=O)[C@H](Cc1ccc(O)cc1)NC(C)=O)C(=O)N[C@@H](CN)C(=O)N[C@@H](C)C(=O)N[C@@H](CCCNC(=N)N)C(=O)N[C@@H](CCCNC(=N)N)C(=O)N[C@@H](Cc1ccccc1)C(=O)N[C@@H](CC(C)C)C(=O)N[C@@H](CCC(=O)O)C(=O)N[C@@H](CCCCN)C(=O)N[C@@H](Cc1c[nH]c2ccccc12)C(=O)NCC(=O)N[C@@H](CC(C)C)C(=O)N[C@@H](CC(C)C)C(=O)N[C@@H](CCCNC(=N)N)C(N)=O [compound 51] (Ac-YPM[Dap]ARRFLEKWGLLR-NH2) | >400 µM | 400 µM (≈ 825 µg/mL) | 100 µM (≈ 206 µg/mL) | 200 µM (≈ 413 µg/mL) | 200 µM (≈ 413 µg/mL) | 100 µM | 100 µM (≈ 206 µg/mL) | 12.5 µM (≈ 25.8 µg/mL) | – | – | –
7 | CSCC[C@H](NC(=O)[C@@H]1CCCN1C(=O)[C@H](Cc1ccc(O)cc1)NC(C)=O)C(=O)N[C@H](C(=O)N(C)[C@@H](C)C(=O)N[C@@H](CCCNC(=N)N)C(=O)N[C@@H](CCCNC(=N)N)C(=O)N[C@@H](Cc1ccccc1)C(=O)N[C@@H](CC(C)C)C(=O)N[C@@H](CCC(=O)O)C(=O)N[C@@H](CCCCN)C(=O)N[C@@H](Cc1c[nH]c2ccccc12)C(=O)NCC(=O)N[C@@H](CC(C)C)C(=O)N[C@@H](CC(C)C)C(=O)N[C@@H](CCCNC(=N)N)C(N)=O)[C@@H](C)O [compound 64] (Ac-YPMT[NMeA]RRFLEKWGLLR-NH2) | – | 400 µM (≈ 837 µg/mL) | 400 µM (≈ 837 µg/mL) | 400 µM (≈ 837 µg/mL) | None/400 | <6.25 µM | 400 µM (≈ 837 µg/mL) | 12.5 µM (≈ 26.2 µg/mL) | – | – | –
8 | Ac-YPMTMRRFLEKWGLLR-NH2 [compound 58] | >400 µM | >800 µM | 400 µM | 50 µM | 400 µM | 50/25 | 25 µM | 12.5 µM | – | – | –
9 | CSCC[C@H](NC(=O)[C@@H]1CCCN1C(=O)[C@H](Cc1ccc(O)cc1)NC(C)=O)C(=O)N[C@H](C(=O)N[C@@H](C)C(=O)N[C@@H](CCCNC(=N)N)C(=O)N[C@@H](CCCNC(=N)N)C(=O)N[C@@H](Cc1ccc(-c2ccccc2)cc1)C(=O)N[C@@H](CC(C)C)C(=O)N[C@@H](CCC(=O)O)C(=O)N[C@@H](CCCCN)C(=O)N[C@@H](Cc1c[nH]c2ccccc12)C(=O)NCC(=O)N[C@@H](CC(C)C)C(=O)N[C@@H](CC(C)C)C(=O)N[C@@H](CCCNC(=N)N)C(N)=O)[C@@H](C)O [compound 55] (Ac-YPMTARR[Bip]LEKWGLLR-NH2) | >400 µM | >800 µM | 100 µM (≈ 215 µg/mL) | 50 µM (≈ 108 µg/mL) | 400 µM (≈ 862 µg/mL) | 25 µM | 25 µM (≈ 53.9 µg/mL) | 6.25 µM (≈ 13.5 µg/mL) | – | – | –
10 | Ac-YPMTFRRFLEKWGLLR-NH2 [compound 59] | >400 µM | >800 µM | 400 µM | 50 µM | 800 µM | 25 µM | 50 µM | 12.5 µM | – | – | –
11 | Ac-GSSYPMTARRFLEKWGLLR-NH2 (N-terminus and C-terminus assumed) [compound 5] | – | – | – | – | – | – | – | – | – | 400 µM | 100 µM
12 | CSCC[C@H](NC(=O)[C@@H]1CCCN1C(=O)[C@H](Cc1ccc(O)cc1)NC(C)=O)C(=O)N[C@H](C(=O)N[C@@H](C)C(=O)N[C@@H](CCCNC(=N)N)C(=O)N[C@@H](CCCNC(=N)N)C(=O)N[C@@H](Cc1ccccc1)C(=O)N[C@@H](CC(C)C)C(=O)N[C@@H](CCC(=O)O)C(=O)N[C@@H](CCCCN)C(=O)N[C@@H](Cc1c[nH]c2ccccc12)C(=O)NCC(=O)N[C@@H](CC(C)C)C(=O)N[C@@H](CC(C)C)C(=O)N[C@@H](CCCNC(=N)N)C(N)=O)[C@H](C)O [compound 48] (Ac-YPM[aThr]ARRFLEKWGLLR-NH2) | >400 µM | 400 µM (≈ 831 µg/mL) | 400 µM (≈ 831 µg/mL) | 400 µM (≈ 831 µg/mL) | 400 µM (≈ 831 µg/mL) | 100 µM | 200 µM (≈ 416 µg/mL) | 17.5 µM (≈ 36.4 µg/mL) | – | – | –
13 | Ac-YPMTARRFLEKWGL-NH2 [compound 44] | >800 µM | 800 µM | – | >800 µM | >800 µM | 200 µM | >800 µM | 100 µM | >400 µM | – | –
14 | CSCC[C@@H](C(=O)N[C@H](C(=O)N(C)[C@@H](C)C(=O)N[C@@H](CCCNC(=N)N)C(=O)N[C@@H](CCCNC(=N)N)C(=O)N[C@@H](Cc1ccccc1)C(=O)N[C@@H](CC(C)C)C(=O)N[C@@H](CCC(=O)O)C(=O)N[C@@H](CCCCN)C(=O)N[C@@H](Cc1c[nH]c2ccccc12)C(=O)NCC(=O)N[C@@H](CC(C)C)C(=O)N[C@@H](CC(C)C)C(=O)N[C@@H](CCCNC(=N)N)C(N)=O)[C@@H](C)O)N(C)C(=O)[C@@H]1CCCN1C(=O)[C@H](Cc1ccc(O)cc1)NC(C)=O [compound 65] (Ac-YP[NMeM]T[NMeA]RRFLEKWGLLR-NH2) | 800 µM (≈ 1690 µg/mL) | 800 µM (≈ 1690 µg/mL) | 200 µM (≈ 421 µg/mL) | 100 µM (≈ 211 µg/mL) | 200 µM (≈ 421 µg/mL) | <6.25 µM | 50 µM (≈ 105 µg/mL) | 12.5 µM (≈ 26.3 µg/mL) | – | – | –
15 | Ac-YPMTARRFLEKHGL-NH2 [compound 12] | – | – | – | – | – | – | – | – | – | 800 µM | 400 µM
16 | Ac-YPMTAQRFLEKWGLLR-NH2 [compound 54] | >400 µM | >800 µM | – | >800 µM | >800 µM | 100 µM | >800 µM | 100 µM | >400 µM | – | –
